For 9 compounds, IC50 results are on record in patent US20240092761A1, “QUINAZOLINE COMPOUNDS AND METHODS OF USE” (IAMBIC THERAPEUTICS, INC., priority 2022, published 2024).

The target of one experiment is CDK1/Cyclin B1 (Homo sapiens (Human), UniProt P06493). Description: CDK1/Cyclin B1 ADP-Glo Kinase Assay. It counts as biochemical. To be noted: 80 uM ATP. Here is the method: CDK1/Cyclin B1 ADP-Glo Kinase Assay
(§1) The purpose of CDK1/Cyclin B1 assay is to evaluate the inhibition (% inhibition and IC50 values) of small molecule inhibitors by using a Luminescent based ADP-Glo assay. CDK1/Cyclin B1 catalyzes the production of ADP from ATP. ADP-Glo assay monitors ADP producing biochemical reactions. ADP-Glo is performed in 2 steps upon completion of kinase reaction: a combined termination of kinase reaction and depletion of remaining ATP in the first step, and conversion of generated ADP to ATP and the newly produced ATP to light output using luciferase/luciferin reaction in the second step. The luminescent signal generated is proportional to the ADP concentration produced and is correlated with the kinase activity. CDK1/Cyclin B1 was purchased from Carna (Cat 04-102). Typical reaction solutions (10 uL final reaction volume) contained 2% DMSO (f inhibitor), 10 mM MgCl2, 1 mM EGTA, 0.05% BSA, 2 mM DTT, 80 uM ATP (ATP Km=78.6 uM), 0.01% Brig-35, 0.75 uM substrate, and 4.917 nM CDK1/Cyclin Bl enzyme complex in 50 mM HEPES buffer at pH 7.5. The assay was initiated with the addition of ATP-containing substrate solution, following a 30-minute pre-incubation of enzyme and inhibitor at room temperature in the reaction mixture. The reaction was stopped after 90 minutes at room temperature by the addition of 10 uL of ADP-GLO Reagent. After a 90 minute incubation, 20 uL of Kinase Detection Reagent was added. Samples were incubated for 40 minutes, after which plate well luminescence was measured on a Envision microplate reader. The IC50 determinations were made from a plot of the fractional velocity as a function of inhibitor concentration fit to the 4 parameters IC50 equation.
For orientation: ADP-Glo turns the ADP formed in a reaction into a luminescent signal.

The target in experiment [1] is CDK2/Cyclin E1 full length (Homo sapiens (Human), UniProt P24941). The experiment in a line: CDK2/Cyclin E1 Full Length ADP-Glo Kinase Assay. The following applies: 20 uM ATP, read-out: CDK2/ CyclinE1 IC50. It counts as biochemical. Here is the method: CDK2/Cyclin E1 Full Length ADP-Glo Kinase Assay
The purpose of CDK2/Cyclin E1 assay is to evaluate the inhibition (% inhibition and IC50 values) of small molecule inhibitors by using a Luminescent based ADP-Glo assay. CDK2/Cyclin E1 full length catalyzes the production of ADP from ATP. ADP-Glo assay monitors ADP producing biochemical reactions. ADP-Glo is performed in 2 steps upon completion of kinase reaction: a combined termination of kinase reaction and depletion of remaining ATP in the first step, and conversion of generated ADP to ATP and the newly produced ATP to light output using luciferase/luciferin reaction in the second step. The luminescent signal generated is proportional to the ADP concentration produced and is correlated with the kinase activity. CDK2/Cyclin E1 was purchased from Eurofins (Cat 14-475M). Typical reaction solutions (10 uL final reaction volume) contained 2% DMSO (f inhibitor), 10 mM MgCI2, 1 mM EGTA, 0.05% BSA, 2 mM DTT, 20 uM ATP (ATP Km=64.78 uM), 0.01% Brig-35, 0.75 uM substrate, and 0.328 nM wild-type full length CDK2/Cyclin E1 enzyme complex in 50 mM HEPES buffer at pH 7.5. The assay was initiated with the addition of ATP-containing substrate solution, following a 30-minute pre-incubation of enzyme and inhibitor at room temperature in the reaction mixture. The reaction was stopped after 90 minutes at room temperature by the addition of 10 uL of ADP-GLO Reagent. After a 90 minute incubation, 20 uL of Kinase Detection Reagent was added. Samples were incubated for 40 minutes, after which plate well luminescence was measured on a Envision microplate reader. The IC50 determinations were made from a plot of the fractional velocity as a function of inhibitor concentration fit to the 4 parameters IC50 equation.

The target of another experiment is CDK4/Cyclin D1 (Homo sapiens (Human), UniProt P11802). The experiment in a line: CDK4/Cyclin D1 CHEF Assay (AQT0258 peptide). It counts as biochemical. The following applies: 200 uM ATP, read-out: CDK4/ CyclinD1 AQT IC50. The text has this:
CDK4/Cyclin D1 CHEF Assay
The purpose of CDK4/Cyclin Dl assay is to evaluate the inhibition (% inhibition and IC50 values) of small molecule inhibitors by using a Chelation-Enhance Fluorescence (CHEF) assay. In a CHEF assay, phosphorylation of a peptide substrate results in proportional increase in fluorescence. CHEF kinase assay use peptide substrates containing a synthetic alpha-amino acid with a side chain bearing an 8-hydroxyquinoline derivative (sulfonamido-oxide, Sox). Upon phosphorylation of a nearby serine, threonine or tyrosine and in the presence of Mg(II), the spectral properties of the Sox residue are altered, emitting 485 nm wavelength light when excited with a 360 nm wavelength light source. CDK4/Cyclin D1 catalyzes the phosphoryl transfer to the SOX-labeled substrate peptide AQT0258 from Assayquant Technologies. Typical reaction solutions contained 2% DMSO (+/−inhibitor), 10 mM MgCl2, 1 mM DTT, 200 uM ATP (ATP Km=195.2 uM), 0.012% Brig-35, 10 uM AQT0258 peptide, 0.02% BSA, 1% Glycerol, 0.55 mM EGTA, 2.5 nM CDK4/Cyclin D1 in 54 mM HEPES buffer at pH 7.5. The reaction was initiated with the addition of substrate solution, following a 30-minute pre-incubation of enzyme and inhibitor at 22° C. in the reaction mix. Reactions were allowed to proceed for 3 hrs at 22° C., followed by fluorescence read of the reaction. The IC50 determinations were made from a plot of the fractional velocity as a function of inhibitor concentration fit to the 4 parameters IC50 equation.

The target in another experiment is CDK6/Cyclin D3 (Homo sapiens (Human), UniProt Q00534). The experiment in a line: CDK6/Cyclin D3 ADP-Glo Kinase Assay. The format is biochemical. The following applies: 100 uM ATP, read-out: CDK6/ CyclinD3 IC50. Here is the method:
CDK6/Cyclin D3 ADP-Glo Kinase Assay
as §1, with “of the CDK6/Cyclin D3” for “of CDK1/Cyclin B1”, “values) in the presence” for “values)”, “assay. CDK6/Cyclin D3” for “assay. CDK1/Cyclin B1”, “activity. CDK6/Cyclin D3” for “activity. CDK1/Cyclin B1”, “from Carna. […]” for “from Carna (Cat 04-102). Typical reaction solutions (10 uL final reaction volume) contained 2% DMSO (f inhibitor), 10 mM MgCl2, 1 mM EGTA, 0.05% BSA, 2 mM DTT, 80 uM ATP (ATP Km=78.6 uM), 0.01% Brig-35, 0.75 uM substrate, and 4.917 nM CDK1/Cyclin Bl enzyme complex in 50 mM HEPES buffer at pH 7.5.”, “a 90-minute” for “a 90 minute”

Another experiment deals with MCF-7 cells. Description: Cell Growth Inhibition, MCF-7 (CellTiterGlo, 6 days). The following applies: Homo sapiens, MCF7, 144 h; MCF-7, 6-day treatment, CellTiterGlo 2.0. It counts as cell-based. The text has this:
(§2) MCF-7 and OVCAR-3 cells were used to evaluate the anti-proliferation activity of the CDK inhibitors. MCF-7 (ATCC, HTB-22) cells are epithelial cells from a patient with ER+ metastatic adenocarcinoma. OVCAR-3 (ATCC, HTB-161) cells were derived from malignant ascites of a patient with ovarian cancer and are known to have CCNE1 amplification. Both cell lines were maintained in RPMI media supplemented with 10% fetal bovine serum. For cell growth inhibition assay, CDK inhibitors in DMSO solution were dispensed with either Echo 655 (Beckman Coulter) or Tecan D300e (HP) into 384-well plates (Corning #3765) and the 384-well plates were UV-sterilized prior to the assay. The inhibitors were typically tested in the 10-10,000 nM concentration range with half-log serial dilutions. MCF-7 or OVCAR-3 (500 cells/30 μL/well) were added to each well using Multidrop Combi (ThermoFisher) using standard cassettes. The assay plates with cells were cultured at 37° C., 5% CO2 for 6 days. At the end of the 6-day treatment, 30 μL of CellTiterGlo 2.0 (Promega) was added to each well and the luminescent signal was read using CLARIOstar plus (BMG). The percentage of cell growth inhibition (% CGI) was calculated using the following formula % CGI=100−100×luminescencesample/luminescencecontrol. The half maximal inhibitory concentration (IC50) was determined by nonlinear curve fitting (four parameters, variable slope).

Another experiment has as its system OVCAR-3 cells. The experiment in a line: Cell Growth Inhibition, OVCAR-3 (CellTiterGlo, 6 days). It counts as cell-based. The following applies: Homo sapiens, 144 h; OVCAR-3, 6-day treatment, CellTiterGlo 2.0.
Source text: as §2
(In general: In ATP-based viability assays light output follows the ATP content of the culture.)

A value given as a limit tells only on which side of the number the result lay.

CDK1/Cyclin B1, sequence (P06493 whole entry): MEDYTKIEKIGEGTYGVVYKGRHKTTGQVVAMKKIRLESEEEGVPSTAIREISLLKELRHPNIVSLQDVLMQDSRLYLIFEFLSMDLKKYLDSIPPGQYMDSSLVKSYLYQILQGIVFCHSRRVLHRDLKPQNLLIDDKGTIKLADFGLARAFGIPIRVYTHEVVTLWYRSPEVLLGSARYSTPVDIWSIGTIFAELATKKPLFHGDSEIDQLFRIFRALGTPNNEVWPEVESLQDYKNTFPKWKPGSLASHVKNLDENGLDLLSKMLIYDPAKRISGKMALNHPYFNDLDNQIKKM
CDK1/Cyclin B1, sequence (P14635 whole entry partner): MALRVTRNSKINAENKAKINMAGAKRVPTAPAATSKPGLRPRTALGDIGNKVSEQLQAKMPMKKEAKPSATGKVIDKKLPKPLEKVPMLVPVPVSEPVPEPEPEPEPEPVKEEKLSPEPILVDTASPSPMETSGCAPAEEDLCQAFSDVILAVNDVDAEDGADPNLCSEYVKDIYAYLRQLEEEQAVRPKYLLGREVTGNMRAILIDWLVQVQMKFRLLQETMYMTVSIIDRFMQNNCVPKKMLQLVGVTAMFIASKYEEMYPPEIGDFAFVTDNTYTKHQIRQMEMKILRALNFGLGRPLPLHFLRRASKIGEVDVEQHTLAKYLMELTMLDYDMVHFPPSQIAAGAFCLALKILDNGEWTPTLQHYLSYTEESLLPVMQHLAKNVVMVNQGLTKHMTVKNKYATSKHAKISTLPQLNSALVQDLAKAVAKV
CDK4/Cyclin D1, sequence (P11802 whole entry): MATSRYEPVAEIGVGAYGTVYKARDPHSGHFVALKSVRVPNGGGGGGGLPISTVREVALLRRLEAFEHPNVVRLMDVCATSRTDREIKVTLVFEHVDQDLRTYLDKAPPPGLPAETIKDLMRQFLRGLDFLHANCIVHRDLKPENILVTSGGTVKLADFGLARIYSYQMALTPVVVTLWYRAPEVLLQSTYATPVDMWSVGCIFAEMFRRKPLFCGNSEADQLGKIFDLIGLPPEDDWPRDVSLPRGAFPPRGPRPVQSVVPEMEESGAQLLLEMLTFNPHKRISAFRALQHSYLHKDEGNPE
CDK4/Cyclin D1, sequence (P24385 whole entry partner): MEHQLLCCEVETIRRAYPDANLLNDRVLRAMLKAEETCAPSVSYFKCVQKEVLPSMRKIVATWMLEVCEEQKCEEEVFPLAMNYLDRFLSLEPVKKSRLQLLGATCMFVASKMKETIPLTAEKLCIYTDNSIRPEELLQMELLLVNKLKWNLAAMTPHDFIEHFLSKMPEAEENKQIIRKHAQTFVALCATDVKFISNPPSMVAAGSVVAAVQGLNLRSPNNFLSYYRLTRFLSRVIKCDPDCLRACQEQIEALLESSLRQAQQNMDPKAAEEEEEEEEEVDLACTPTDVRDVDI
CDK6/Cyclin D3, sequence (Q00534 whole entry): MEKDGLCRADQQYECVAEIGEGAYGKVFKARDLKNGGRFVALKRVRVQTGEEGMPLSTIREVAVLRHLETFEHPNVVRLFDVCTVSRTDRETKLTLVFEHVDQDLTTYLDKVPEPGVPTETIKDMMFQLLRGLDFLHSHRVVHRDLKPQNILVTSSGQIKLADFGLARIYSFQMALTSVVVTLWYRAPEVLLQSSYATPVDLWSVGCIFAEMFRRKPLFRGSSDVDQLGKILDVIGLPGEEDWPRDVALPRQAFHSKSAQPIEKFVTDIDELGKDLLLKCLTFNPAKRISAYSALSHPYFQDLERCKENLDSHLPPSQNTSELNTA
CDK6/Cyclin D3, sequence (P30281 whole entry partner): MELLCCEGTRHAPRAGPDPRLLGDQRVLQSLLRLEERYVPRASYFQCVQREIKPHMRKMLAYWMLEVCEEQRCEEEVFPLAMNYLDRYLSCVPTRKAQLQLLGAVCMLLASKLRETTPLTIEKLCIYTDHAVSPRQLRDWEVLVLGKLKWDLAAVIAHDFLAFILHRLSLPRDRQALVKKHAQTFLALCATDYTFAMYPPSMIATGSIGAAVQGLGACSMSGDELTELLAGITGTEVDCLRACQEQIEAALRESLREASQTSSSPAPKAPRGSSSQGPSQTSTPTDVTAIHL

As to `Cn1ncc2cc(Nc3ncc4cc(C(F)F)cc(N5CC6(CCNC6)C5)c4n3)ccc21` [Example 75, 6-(difluoromethyl)-N-(1-methyl-1H-indazol-5-yl)-8-(2,6-diazaspiro[3.4]octan-2-yl)quinazolin-2-amine], the IC50 on CDK1/Cyclin B1 is < 0.2 µM; in experiment [1], < 0.2 µM; at CDK4/Cyclin D1 it was < 0.2 µM; at CDK6/Cyclin D3, < 0.2 µM; with MCF-7 cells, 0.5 to 2 µM; with OVCAR-3 cells, 0.5 to 2 µM.
Consider `O=S(=O)(C1CC1)N1CCC(Nc2ncc3cc(C(F)F)cc(N4CC5(CNCCO5)C4)c3n2)CC1` [Example 98, N-(1-(cyclopropylsulfonyl)piperidin-4-yl)-6-(difluoromethyl)-8-(5-oxa-2,8-diazaspiro[3.5]nonan-2-yl)quinazolin-2-amine], for which the IC50 was < 0.2 µM against CDK1/Cyclin B1; < 0.2 µM in experiment [1]; < 0.2 µM at CDK4/Cyclin D1; < 0.2 µM on CDK6/Cyclin D3; 0.2 to 0.5 µM in the experiment with MCF-7 cells; 0.5 to 2 µM with OVCAR-3 cells.
On to `COC1CC2(C1)CC(c1cccc3cnc(NC4CCN(S(C)(=O)=O)CC4)nc13)C2` (stereo not shown) [Example 107, 8-(6-methoxyspiro[3.3]heptan-2-yl)-N-(1-(methylsulfonyl)piperidin-4-yl)quinazolin-2-amine], for which the IC50 against CDK1/Cyclin B1 is 0.5 to 2 µM; in experiment [1] it was < 0.2 µM; on CDK4/Cyclin D1, < 0.2 µM; at CDK6/Cyclin D3, < 0.2 µM.
Regarding `CN1CC2(CC(c3cc(C(F)F)cc4cnc(NC5CCN(S(C)(=O)=O)CC5)nc34)C2)C1` [Example 67, 6-(difluoromethyl)-8-(2-methyl-2-azaspiro[3.3]heptan-6-yl)-N-(1-(methylsulfonyl)piperidin-4-yl)quinazolin-2-amine], the IC50 (against CDK1/Cyclin B1; in experiment [1]; with MCF-7 cells; in the experiment on OVCAR-3 cells) was < 0.2 µM each time.
On to `CS(=O)(=O)N1CC[C@@H](Nc2ncc3cc(C(F)F)cc(N4CC(F)(F)C5(CNC5)C4)c3n2)[C@H](O)C1` (racemic) [Example 118, (3R,4R)-4-((8-(8,8-difluoro-2,6-diazaspiro[3.4]octan-6-yl)-6-(difluoromethyl)quinazolin-2-yl)amino)-1-(methylsulfonyl)piperidin-3-ol], for which the IC50 against CDK1/Cyclin B1 is 0.5 to 2 µM; in experiment [1], < 0.2 µM; on CDK4/Cyclin D1 it was < 0.2 µM; at CDK6/Cyclin D3 it was < 0.2 µM; in the experiment on OVCAR-3 cells, > 2 µM.
Regarding `CS(=O)(=O)N1CCC(Nc2ncc3cccc(C4CC5(CNCC5(F)F)C4)c3n2)CC1` (stereo not shown) [Example 122, 8-(8,8-difluoro-6-azaspiro[3.4]octan-2-yl)-N-(1-(methylsulfonyl)piperidin-4-yl)quinazolin-2-amine], the IC50 (at CDK1/Cyclin B1; in experiment [1]; at CDK4/Cyclin D1; on CDK6/Cyclin D3) was < 0.2 µM throughout.
As for `Cn1cc(S(=O)(=O)N2CCC(Nc3ncc4cccc(N5CC(O)(C(F)F)C5)c4n3)CC2)cn1` [Example 119, 3-(difluoromethyl)-1-(2-((1-((1-methyl-1H-pyrazol-4-yl)sulfonyl)piperidin-4-yl)amino)quinazolin-8-yl)azetidin-3-ol], the IC50 on CDK1/Cyclin B1 is < 0.2 µM; in experiment [1], < 0.2 µM; on CDK4/Cyclin D1 it was < 0.2 µM; at CDK6/Cyclin D3, < 0.2 µM; in the experiment with OVCAR-3 cells, 0.5 to 2 µM.
`COC1CC2(C1)CC(c1cc(C(F)F)cc3cnc(NC4CCN(S(C)(=O)=O)CC4)nc13)C2` (stereo not shown) [Example 108, 6-(difluoromethyl)-8-(6-methoxyspiro[3.3]heptan-2-yl)-N-(1-(methylsulfonyl)piperidin-4-yl)quinazolin-2-amine]: the IC50 (against CDK1/Cyclin B1; in experiment [1]; on CDK4/Cyclin D1; on CDK6/Cyclin D3) was < 0.2 µM throughout.
On to `CC(=O)N1CCC2(CCC(c3cccc4cnc(NC5CCN(S(C)(=O)=O)CC5)nc34)C2)C1` (stereo not shown) [Example 35], for which the IC50 against CDK1/Cyclin B1 was 0.2 to 0.5 µM; in experiment [1] it was < 0.2 µM; on CDK6/Cyclin D3, < 0.2 µM; in the experiment on MCF-7 cells, 0.5 to 2 µM; with OVCAR-3 cells it was > 2 µM.
